Values of other authors in patent publication US20100305045A1, “OMEGA-3 OIL CONTAINING OPHTHALMIC EMULSIONS” (Abbott Medical Optics Inc., priority 2009, published 2010).
Where two headings read alike, the source gives them in different places.

Conditions: HLB value as reported by the manufacturer of the commercial product, or rough average

| HLB | HLB (listed as Brij 72) | Substance |
| --- | --- | --- |
| 8.0 |  | 2,4,7,9-Tetramethyl-5-decyne-4,7-diol ethoxylate |
| 5.3 |  | Polyoxyethylene(2) cetyl ether [Brij ® 52] |
| 10.0 |  | Polyoxyethylene(5) nonylphenyl ether [Igepal ® CO-520] |
| 14.5 |  | Polyoxyethylene(18) tridecyl ether |
| 4.9 | approximately 4.9 | Polyoxyethylene(2) stearyl ether [Brij ® 72] |
| 17.0 |  | 2,4,7,9-Tetramethyl-5-decyne-4,7-diol ethoxylate (15 EO/OH) |
| 11.4 |  | Polyoxyethylene sorbitan tetraoleate |
| 10.0 |  | Polyoxyethylene(5) isooctylphenyl ether [Igepal ® CA-520] |
| 14.6 |  | Polyoxyethylene(12) isooctylphenyl ether [Igepal ® CA-720] |
| 4.7 |  | Sorbitan monostearate |
| 14.5 |  | Polyoxyethylene(12) tridecyl ether |
| 6.7 |  | Sorbitan monopalmitate |
| 19.0 |  | Polyoxyethylene(100) nonylphenyl ether [Igepal ® CO-990] |
| 4.9 |  | Polyoxyethylene(2) oleyl ether [Brij ® 92/93] |
| 4.3 |  | Polyoxyethylene(2) isooctylphenyl ether [Igepal ® CA-210] |
| 4.3 |  | Sorbitan monooleate |
| 9.7 |  | Polyoxyethylene(4) lauryl ether [Brij ® 30] |
| 4.6 |  | Polyoxyethylene(2) nonylphenyl ether [Igepal CO-210] |
| 14.2 |  | Polyoxyethylene(12) nonylphenyl ether [Igepal ® CO-720] |
| 19.0 |  | Polyoxyethylene(150) dinonylphenyl ether [Igepal ® DM-970] |

| Substance | HLB | HLB (listed as Brij 72) |
| --- | --- | --- |
| Polyoxyethylene(40) isooctylphenyl ether [Triton ® X-405] | 17.9 |  |
| Polyoxyethylene sorbitol hexaoleate | 10.2 |  |
| Polyoxyethylene(40) nonylphenyl ether [Igepal ® CO-890] | 17.8 |  |
| Polyoxyethylene(100) stearyl ether [Brij ® 700] | 18.8 |  |
